Data taken from patent publication US4001419A, “1'-Substituted xanthene-9-spiro-4'-piperidine derivatives” (Imperial Chemical Industries Limited, priority 1974, dated 1977).
Read-outs that look alike come from different tables or passages of the source.

Assay: LD50 (acute toxicity)
Parameters: species or system mice
Conditions: mouse, in vivo
Procedure: All the compounds exemplified in this specification are active on at least one of these standard tests at a dose of equal to or less than 100 mg./kg. of the free base. […] Other LD50 values for compounds of the invention when dosed intravenously are as follows: […]

[1] = intravenous, read-out: LD50 when dosed intravenously

Structure (SMILES) | LD50 [1] [mg/kg] | LD50 (mice, oral, read-out: oral LD50) [mg/kg]
CN1CCC2(CC1)c1ccc(Cl)cc1Oc1c(O)cccc12 [6-chloro-4-hydroxy-1'-methylxanthene-9-spiro-4'-piperidine] | > 25 | > 200
CC(=O)Oc1cccc2c1Oc1cc(Cl)ccc1C21CCN(C)CC1 [4-OAc H 6-Cl H] | > 35 | –
CN1CCC2(CC1)c1cccc(O)c1Oc1cccc(F)c12 [4-OH H 8-F H] | > 20 | –
CSc1ccc2c(c1)Oc1c(OC(C)=O)cccc1C21CCN(C)CC1 [4-OAc H 6-SMe H] | > 40 | –
COc1ccc2c(c1)Oc1c(OC(C)=O)cccc1C21CCN(C)CC1 [4-OAc H 6-OMe H] | > 20 | –
